From US8927587B2, “Chemical compounds” (Pfizer Limited, priority 2012, dated 2015)

The compounds below were run against T1, hNav1.8 (Homo sapiens, UniProt Q9Y5Y9) (assay: hNav1.8 whole-cell patch-clamp electrophysiology (conventional or PatchXpress 7000) in stably transfected HEK cells). Conditions: estimated IC50 calculated from single point % inhibition; HEK cells expressing hNav1.8; 8 sec prepulse to V1/2, 20 msec step to 0 mV; average of replicates; read-out: Nav1.8 EIC50.
T1 construct: host or cells: HEK cells, stably transfected
T1 sequence (Q9Y5Y9 whole entry): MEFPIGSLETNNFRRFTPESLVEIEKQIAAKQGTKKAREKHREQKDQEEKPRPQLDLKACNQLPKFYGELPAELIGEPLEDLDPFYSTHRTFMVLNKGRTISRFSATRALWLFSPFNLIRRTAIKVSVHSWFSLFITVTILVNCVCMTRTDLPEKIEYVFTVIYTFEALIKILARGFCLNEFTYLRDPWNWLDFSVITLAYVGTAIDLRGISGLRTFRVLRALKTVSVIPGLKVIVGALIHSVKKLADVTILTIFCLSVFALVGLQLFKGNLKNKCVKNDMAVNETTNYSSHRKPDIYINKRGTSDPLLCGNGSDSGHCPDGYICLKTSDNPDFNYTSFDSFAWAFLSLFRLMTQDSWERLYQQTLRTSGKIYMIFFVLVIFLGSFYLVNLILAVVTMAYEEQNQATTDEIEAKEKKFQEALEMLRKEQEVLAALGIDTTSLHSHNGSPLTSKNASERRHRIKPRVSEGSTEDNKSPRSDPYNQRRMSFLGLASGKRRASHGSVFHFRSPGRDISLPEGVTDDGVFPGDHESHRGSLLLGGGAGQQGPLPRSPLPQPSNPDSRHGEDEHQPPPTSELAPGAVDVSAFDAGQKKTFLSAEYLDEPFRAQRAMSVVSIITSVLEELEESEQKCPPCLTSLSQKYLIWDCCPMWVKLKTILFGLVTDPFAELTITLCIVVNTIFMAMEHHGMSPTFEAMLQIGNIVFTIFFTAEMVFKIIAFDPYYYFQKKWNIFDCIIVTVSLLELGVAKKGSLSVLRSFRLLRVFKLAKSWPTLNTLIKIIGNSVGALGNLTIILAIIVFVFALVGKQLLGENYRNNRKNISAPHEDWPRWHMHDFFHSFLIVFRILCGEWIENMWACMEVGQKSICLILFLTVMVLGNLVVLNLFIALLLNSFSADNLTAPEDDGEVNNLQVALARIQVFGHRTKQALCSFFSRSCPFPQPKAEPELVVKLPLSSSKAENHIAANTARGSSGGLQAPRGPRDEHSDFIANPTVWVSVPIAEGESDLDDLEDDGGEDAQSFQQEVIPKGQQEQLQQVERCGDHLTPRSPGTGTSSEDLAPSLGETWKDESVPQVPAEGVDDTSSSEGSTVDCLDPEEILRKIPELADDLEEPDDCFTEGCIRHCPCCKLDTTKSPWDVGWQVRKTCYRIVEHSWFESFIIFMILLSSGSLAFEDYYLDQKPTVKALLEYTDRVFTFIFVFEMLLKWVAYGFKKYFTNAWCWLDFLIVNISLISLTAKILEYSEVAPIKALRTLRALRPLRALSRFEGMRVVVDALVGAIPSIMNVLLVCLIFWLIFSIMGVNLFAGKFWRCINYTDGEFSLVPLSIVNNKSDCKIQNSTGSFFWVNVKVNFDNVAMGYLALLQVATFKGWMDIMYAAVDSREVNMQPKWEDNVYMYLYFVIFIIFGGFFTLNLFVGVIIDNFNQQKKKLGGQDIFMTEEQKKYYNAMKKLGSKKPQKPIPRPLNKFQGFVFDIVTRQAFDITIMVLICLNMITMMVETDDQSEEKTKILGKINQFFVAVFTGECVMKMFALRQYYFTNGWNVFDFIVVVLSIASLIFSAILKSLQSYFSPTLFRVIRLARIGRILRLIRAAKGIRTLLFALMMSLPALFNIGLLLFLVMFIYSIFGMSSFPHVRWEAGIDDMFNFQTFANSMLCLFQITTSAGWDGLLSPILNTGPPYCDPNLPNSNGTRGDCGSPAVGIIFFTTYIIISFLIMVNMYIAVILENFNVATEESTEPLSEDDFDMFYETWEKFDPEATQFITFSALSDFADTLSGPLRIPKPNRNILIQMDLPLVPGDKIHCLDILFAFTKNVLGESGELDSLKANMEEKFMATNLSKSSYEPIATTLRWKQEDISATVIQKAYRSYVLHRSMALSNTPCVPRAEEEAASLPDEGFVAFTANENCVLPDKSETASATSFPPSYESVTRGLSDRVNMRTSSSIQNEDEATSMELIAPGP
Type: cell-based
Source text: The ability of the benzimidazole derivatives of the formula (I) to inhibit the Nav1.8 channel may be measured using the assay described below.
HEK cells stably transfected with hNav1.8, purchased from Millipore (Millipore Corp., Billerica, Mass. 01821), were maintained according to manufacturer's instructions. For electrophysiological studies, cells were removed from the culture flask by brief trypsinization and re-plated at low density onto glass cover slips. Cells were typically used for electrophysiological experiments within 24 to 72 h after plating.
Cover slips containing HEK cells expressing hNav1.8 were placed in a bath on the stage of an inverted microscope and perfused (approximately 1 ml/min) with extracellular solution of the following composition: 138 mM NaCl, 2 mM CaCl2, 5.4 mM KCl, 1 mM MgCl2, 10 mM glucose, and 10 mM HEPES, pH 7.4, with NaOH. […] The osmolarity of the extracellular and intracellular solutions was 300 mOsm/kg and 295 mOsm/kg, respectively. All recordings were made at room temperature (22-24° C.) using AXOPATCH 200B amplifiers and PCLAMP software (Axon Instruments, Burlingame, Calif.).
hNav1.8 currents in HEK cells were measured using the whole-cell configuration of the patch-clamp technique (Hamill et al., 1981). Uncompensated series resistance was typically 2 to 5 mega ohms and >85% series resistance compensation was routinely achieved. As a result, voltage errors were negligible and no correction was applied. Current records were acquired at 20 to 50 KHz and filtered at 5 to 10 KHz.
HEK cells stably transfected with hNav1.8 were viewed under Hoffman contrast optics and placed in front of an array of flow pipes emitting either control or compound-containing extracellular solutions. All compounds were dissolved in dimethyl sulfoxide to make 10 mM stock solutions, which were then diluted into extracellular solution to attain the final concentrations desired.
The voltage-dependence of inactivation was determined by applying a series of depolarizing prepulses (8 sec long in 10 mV increments) from a negative holding potential. The voltage was then immediately stepped to 0 mV to assess the magnitude of the sodium current. Currents elicited at 0 mV were plotted as a function of prepulse potential to allow estimation of the voltage at which 50% of the channels were inactivated (midpoint of inactivation or V1/2). Compounds were tested for their ability to inhibit hNav1.8 sodium channels by activating the channel with a 20 msec voltage step to 0 mV following an 8 second conditioning prepulse to the empirically determined V1/2. Compound effect (% inhibition) was determined by difference in current amplitude before and after application of test compounds. For ease of comparison, “estimated IC50” values were calculated from single point electrophysiology data by the following equation, (tested concentration, uM)×(100-% inhibition/% inhibition). Inhibition values<20% and >80% were excluded from the calculation.
In some cases electrophysiological assays were conducted with PatchXpress 7000 hardware and associated software (Molecular Devices Corp). All assay buffers and solutions were identical to those used in conventional whole-cell voltage clamp experiments described above. hNav1.8 cells were grown as above to 50%-80% confluency and harvested by trypsinization. Trypsinized cells were washed and resuspended in extracellular buffer at a concentration of 1×10^6 cells/ml. The onboard liquid handling facility of the PatchXpress was used for dispensing cells and application of test compounds. Determination of the voltage midpoint of inactivation was as described for conventional whole-cell recordings. Cells were then voltage-clamped to the empirically determined V1/2 and current was activated by a 20 msec voltage step to 0 mV.
Estimated IC50 values for the compounds of formula (I) exemplified above are as follows. […]

| SMILES | IC50 [nM] |
| --- | --- |
| CC(C)(N)c1nc2cc(-c3ccccc3C#N)ccc2[nH]1 [Example 74, 2-[2-(1-Amino-1-methylethyl)-1H-benzimidazol-5-yl]benzonitrile] | 1360 |
| CO[C@H](C)[C@H](N)c1nc2cc(-c3ccc(C#N)cc3F)ccc2[nH]1 [Example 90, 4-{2-[(1R,2R)-1-Amino-2-methoxypropyl]-1H-benzimidazol-5-yl}-3-fluorobenzonitrile] | 18.7 |
| N#Cc1ccc(-c2ccc3[nH]c([C@@H](N)c4ccccc4)nc3c2)cc1 [Example 42, 4-{2-[(S)-Amino(phenyl)methyl]-1H-benzimidazol-5-yl}benzonitrile] | 122 |
| CC(C)(C)c1ccc2[nH]c([C@@H]3CCN3)nc2c1 [Example 129, 2-[(2S)-Azetidin-2-yl]-5-tert-butyl-1H-benzimidazole] | 510 |
| CO[C@H](C)[C@H](N)c1nc2c(Cl)c(-c3ccc(C#N)c(F)c3)ccc2[nH]1 [Example 120, 4-{2-[(1R,2R)-1-Amino-2-methoxypropyl]-4-chloro-1H-benzimidazol-5-yl}-2-fluorobenzonitrile] | 88.5 |
| CC(C)[C@@H](O)[C@H](N)c1nc2cc(C(C)(C)C)ccc2[nH]1 [Example 133, (1R,2R)-1-Amino-1-(5-tert-butyl-1H-benzimidazol-2-yl)-3-methylbutan-2-ol] | 228 |
| CCC(C)(C)c1ccc2[nH]c([C@@H](N)CC(N)=O)nc2c1 [Example 30, (3S)-3-Amino-3-[5-(2-methylbutan-2-yl)-1H-benzimidazol-2-yl]propanamide] | 148 |
| [2H][13C]([2H])([2H])[C@@H](C(N)=O)[C@H](N)c1nc2cc(C(C)(C)C)ccc2[nH]1 [Example 105, (2R,3S)-3-Amino-3-(5-tert-butyl-1H-benzimidazol-2-yl)-2-(^13CD3-methyl)propanamide] | 69.9 |
| CC(C)(C)c1ccc2nc([C@@H](N)CO)cn2c1 [Example 155, (2R)-2-Amino-2-(6-tert-butylimidazo[1,2-a]pyridin-2-yl)ethanol] | 208 |
| C[C@H](O)[C@@H](N)c1nc2cc(-c3ccc(C#N)cc3)ccc2[nH]1 [Example 62, 4-{2-[(1S,25)-1-amino-2-hydroxypropyl]-1H-benzimidazol-5-yl}benzonitrile] | 580 |
| CCCCc1ccc2[nH]c(C(C)(C)N)nc2c1 [Example 65, 2-(5-Butyl-1H-benzimidazol-2-yl)propan-2-amine] | 2710 |
| CC[C@@H](N)c1nc2cc(C(C)(C)C)ccc2[nH]1 [Example 97, (1R)-1-(5-tert-Butyl-1H-benzimidazol-2-yl)propan-1-amine] | 151 |
| CC[C@@H](O)[C@H](N)c1nc2cc(C(C)C)ccc2[nH]1 [Example 126, (1R,2R)-1-Amino-1-[5-(propan-2-yl)-1H-benzimidazol-2-yl]butan-2-ol] | 967 |
| CC(C)C[C@H](N)c1nc2cc(C(C)(C)C)ccc2[nH]1 [Example 14, (1S)-1-(5-tert-Butyl-1H-benzimidazol-2-yl)-3-methylbutan-1-amine] | 476 |
| CC(C)(C)c1ccc2[nH]c([C@@H](N)CO)nc2c1 [Example 20, (2R)-2-Amino-2-(5-tert-butyl-1H-benzimidazol-2-yl)ethanol] | 106 |
| CC(C)(C)c1ccc2[nH]c([C@H](N)CC(N)=O)nc2c1 [Example 28, (3R)-3-Amino-3-(5-tert-butyl-1H-benzimidazol-2-yl)propanamide] | 130 |
| CC[C@@H](C(N)=O)[C@H](N)c1nc2cc(C(C)(C)C)ccc2[nH]1 [Example 144, (R)-2-((S)-Amino-(6-(tert-butyl)-1H-benzo[d]imidazol-2-yl)methyl)butanamide] | 41.3 |
| CC[C@@H](C)[C@@H](N)c1nc2cc(C(C)(C)C)ccc2[nH]1 [Example 23, (1R,2R)-1-(5-tert-Butyl-1H-benzimidazol-2-yl)-2-methylbutan-1-amine] | 44.6 |

| SMILES | IC50 [nM] |
| --- | --- |
| CC(C)(N)c1nc2cc(-c3cccc(Cl)c3C#N)ccc2[nH]1 [Example 73, 2-[2-(1-Amino-1-methylethyl)-1H-benzimidazol-5-yl]-6-chlorobenzonitrile] | 827 |
| CCC(C)(C)c1ccc2[nH]c(C3(N)Cc4ccccc4C3)nc2c1 [Example 33, 2-[5-(2-Methylbutan-2-yl)-1H-benzimidazol-2-yl]-2,3-dihydro-1H-inden-2-amine] | 266 |
| CCC(C)(C)c1ccc2[nH]c([C@@H]3C[C@H](O)CN3)nc2c1 [Example 29, (3S,5S)-5-[5-(2-Methylbutan-2-yl)-1H-benzimidazol-2-yl]pyrrolidin-3-ol] | 390 |
| CCCC[C@H](N)c1nc2cc(C(C)(C)C)ccc2[nH]1 [Example 11, (1S)-1-(5-tert-Butyl-1H-benzimidazol-2-yl)pentan-1-amine] | 29.7 |
| N#Cc1ccc(-c2ccc3[nH]c([C@@H](N)CC(N)=O)nc3c2)cc1 [Example 45, (3S)-3-Amino-3-[5-(4-cyanophenyl)-1H-benzimidazol-2-yl]propanamide] | 203 |
| CC(C)(C)c1ccc2[nH]c([C@@H](N)C(C)(C)O)nc2c1 [Example 102, (1R)-1-Amino-1-(5-tert-butyl-1H-benzimidazol-2-yl)-2-methylpropan-2-ol] | 71 |
| CO[C@@H](C)[C@H](N)c1nc2cc(C(C)C)ccc2[nH]1 [Example 127, (1R,2S)-2-Methoxy-1-[5-(propan-2-yl)-1H-benzimidazol-2-yl]propan-1-amine] | 2770 |
| N#Cc1ccc(-c2ccc3[nH]c([C@@H](N)CO)nc3c2)cc1 [Example 82, 4-{2-[(1R)-1-Amino-2-hydroxyethyl]-1H-benzimidazol-5-yl}benzonitrile] | 323 |
| C[C@@H](O)[C@@H](N)c1nc2cc(-c3ccc(C#N)cc3)ccc2[nH]1 [Example 137, 4-{2-[(1S,2R)-1-Amino-2-hydroxypropyl]-1H-benzimidazol-5-yl}benzonitrile] | 915 |
| C[C@@H](C(N)=O)[C@H](N)c1cn2cc(C(C)(C)C)ccc2n1 [Example 157, (2R,3S)-3-Amino-3-(6-tert-butylimidazo[1,2-a]pyridin-2-yl)-2-methylpropanamide] | 44.5 |
| CCC[C@H](N)c1nc2cc(-c3ccc(C#N)c(F)c3)ccc2[nH]1 [Example 146, 4-{2-[(1S)-1-Aminobutyl]-1H-benzimidazol-5-yl}-2-fluorobenzonitrile] | 27.3 |
| CC(C)(C)c1ccc2[nH]c([C@H]3NCC[C@H]3O)nc2c1 [Example 136, (2R,3R)-2-(5-tert-Butyl-1H-benzimidazol-2-yl)pyrrolidin-3-ol] | 508 |
| N#Cc1ccc(-c2ccc3[nH]c([C@H]4C[C@@H](O)CN4)nc3c2)cc1 [Example 43, 4-{2-[(2R,4R)-4-Hydroxypyrrolidin-2-yl]-1H-benzimidazol-5-yl}benzonitrile] | 842 |
| CC(C)c1ccc2[nH]c([C@H](N)[C@@H](C)O)nc2c1 [Example 148, (1S,2R)-1-Amino-1-[5-(propan-2-yl)-1H-benzimidazol-2-yl]propan-2-ol] | 1000 |
| CC(C)(C)c1ccc2[nH]c([C@@H](N)COC(N)=O)nc2c1 [Example 143, (R)-2-Amino-2-(5-(tert-butyl)-1H-benzo[d]imidazol-2-yl)ethyl carbamate] | 85.2 |
| N#Cc1ccc(-c2ccc3[nH]c([C@@H](N)CC(N)=O)nc3c2)cc1F [Example 117, (3S)-3-Amino-3-[5-(4-cyano-3-fluorophenyl)-1H-benzimidazol-2-yl]propanamide] | 2490 |
| C[C@H](N)c1nc2cc(-c3ccc(C#N)cc3)ccc2[nH]1 [Example 64, 4-{2-[(1S)-1-aminoethyl]-1H-benzimidazol-5-yl}benzonitrile] | 1000 |
| CC(C)(C)c1ccc2[nH]c([C@H]3C[C@@H](O)CN3)nc2c1 [Example 24, (3R,5R)-5-(5-tert-Butyl-1H-benzimidazol-2-yl)pyrrolidin-3-ol] | 58 |
